# Molecular target: SARS-CoV-2 PLpro (Severe acute respiratory syndrome coronavirus 2, UniProt P0DTD1)
# Experiment: biochemical
# Type: biochemical
# Conditions: concentration not stated
row,SMILES,inhibition activity in SARS-CoV-2 PLpro enzymatic activity
1,C[C@@H]1O[C@@H](OC[C@H]2O[C@@H](Oc3c(-c4ccc(O)c(O)c4)oc4cc(O)cc(O)c4c3=O)[C@H](O)[C@@H](O)[C@@H]2O)[C@H](O)[C@H](O)[C@H]1O [rutin],more than 50%
2,C/C=C1/[C@H](O[C@@H]2O[C@H](CO)[C@@H](O)[C@H](O)[C@H]2O)OC=C(C(=O)OC)[C@H]1CC(=O)OCCc1ccc(O)c(O)c1 [oleuropein],more than 50%
3,"O=c1c2cc(O)c(O)cc2oc2cc(O)c([C@@H]3O[C@H](CO)[C@@H](O)[C@H](O)[C@H]3O)c(O)c12 [mangiferin, 2-β-D-glucopyranosyl-1,3,6,7-tetrahydroxy-9H-xanthan-9-one]",more than 50%

# Source: publication PMC9878345 (Frontiers in Chemistry, 2023)
